Test results from US20100298141A1, “SUBSTITUTED PYRIDINE N-OXIDE HERBICIDES” (E. I. DU PONT DE NEMOURS AND COMPANY, priority 2007, published 2010).

How the values were obtained:
[1] = test system: common (oilseed) sunflower; assay: Test C pre-/postemergence test; type: in vivo, Helianthus annuus; settings: for Plant response rating, Sunflower: 31 g ai/ha, scale 0 to 100 (0 no effect, 100 complete control)
Procedure, shortened: (§1)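 Test chemicals were formulated with surfactant in a non-phytotoxic solvent and sprayed both on freshly planted seeds (preemergence) and on 1- to 4-leaf plants of 2–18 cm (postemergence). Flooded-paddy pots received compound directly into 3 cm of standing water, maintained for the test.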

[2] = test system: Surinam grass; assay: Test C pre-/postemergence test; type: in vivo, Brachiaria decumbens; settings: for Plant response rating, Surinam Grass: 31 g ai/ha, scale 0 to 100 (0 no effect, 100 complete control)
Procedure, shortened: as §1

[3] = test system: corn; assay: Test A pre-/postemergence greenhouse test; type: in vivo, Zea mays; settings: for Corn plant response rating: 0 to 100 scale; for Plant response rating, Corn: 0 to 100 scale where 0 is no effect and 100 is complete control
Procedure, shortened: (§2)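 Seeds sown in a loam soil–sand blend got a preemergence directed soil spray of compound in a non-phytotoxic solvent mixture containing surfactant. Postemergence sprays of the same formulation went at the same time onto plants 2–10 cm tall at the one- to two-leaf stage. Injury was scored visually against untreated controls after about ten days in the greenhouse.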

[4] = test system: morningglory; assay: Test C pre-/postemergence test; type: in vivo, Ipomoea coccinea; settings: for Plant response rating, Morningglory: 31 g ai/ha, scale 0 to 100 (0 no effect, 100 complete control)
Procedure, shortened: as §1

[5] = test system: velvetleaf; assay: Test C pre-/postemergence test; type: in vivo, Abutilon theophrasti; settings: for Plant response rating, Velvetleaf: 31 g ai/ha, scale 0 to 100 (0 no effect, 100 complete control)
Procedure, shortened: as §1

[6] = test system: Italian ryegrass; assay: Test C pre-/postemergence test; type: in vivo, Lolium multiflorum; settings: for Plant response rating, Ryegrass, Italian: 31 g ai/ha, scale 0 to 100 (0 no effect, 100 complete control)
Procedure, shortened: as §1

[7] = test system: pigweed; assay: Test C pre-/postemergence test; type: in vivo, Amaranthus retroflexus; settings: for Plant response rating, Pigweed: 31 g ai/ha, scale 0 to 100 (0 no effect, 100 complete control)
Procedure, shortened: as §1

[8] = test system: eastern black nightshade; assay: Test C pre-/postemergence test; type: in vivo, Solanum ptycanthum; settings: for Plant response rating, Nightshade: 31 g ai/ha, scale 0 to 100 (0 no effect, 100 complete control)
Procedure, shortened: as §1

[9] = test system: crabgrass; assay: Test C pre-/postemergence test; type: in vivo, Digitaria sanguinalis; settings: for Plant response rating, Crabgrass, Large: 31 g ai/ha, scale 0 to 100 (0 no effect, 100 complete control)
Procedure, shortened: as §1

[10] = test system: giant foxtail; assay: Test C pre-/postemergence test; type: in vivo, Setaria faberii; settings: for Plant response rating, Foxtail, Giant: 31 g ai/ha, scale 0 to 100 (0 no effect, 100 complete control)
Procedure, shortened: as §1

[11] = test system: umbrella sedge; assay: Test C flooded paddy test; type: in vivo, Cyperus difformis; settings: Flood
Procedure, shortened: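 Flooded 3 cm over soil; compound into paddy water; depth kept constant. Greenhouse 13–15 d.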

[12] = test system: wheat; assay: Test A pre-/postemergence greenhouse test; type: in vivo, Triticum aestivum; settings: for Wheat plant response rating: 0 to 100 scale; for Plant response rating, Wheat: 0 to 100 scale where 0 is no effect and 100 is complete control
Procedure, shortened: as §2

[13] = test system: corn; assay: Test C pre-/postemergence test; type: in vivo, Zea mays; settings: for Plant response rating, Corn: 31 g ai/ha, scale 0 to 100 (0 no effect, 100 complete control)
Procedure, shortened: as §1

[14] = test system: crabgrass; assay: Test A pre-/postemergence greenhouse test; type: in vivo, Digitaria sanguinalis; settings: for Crabgrass, Large plant response rating: 0 to 100 scale; for Plant response rating, Crabgrass, Large: 0 to 100 scale where 0 is no effect and 100 is complete control
Procedure, shortened: as §2

[15] = test system: barnyardgrass; assay: Test A pre-/postemergence greenhouse test; type: in vivo, Echinochloa crus-galli; settings: for Barnyardgrass plant response rating: 0 to 100 scale; for Plant response rating, Barnyardgrass: 0 to 100 scale where 0 is no effect and 100 is complete control
Procedure, shortened: as §2

[16] = test system: johnsongrass; assay: Test C pre-/postemergence test; type: in vivo, Sorghum halepense; settings: for Plant response rating, Johnsongrass: 31 g ai/ha, scale 0 to 100 (0 no effect, 100 complete control)
Procedure, shortened: as §1

[17] = test system: Goosegrass; assay: Test C pre-/postemergence test; type: in vivo, Eleusin indica; settings: for Plant response rating, Goosegrass: 31 g ai/ha, scale 0 to 100 (0 no effect, 100 complete control)
Procedure, shortened: as §1

[18] = 62 g ai/ha, Preemergence, scale 0 to 100
[19] = Postemergence, 125 g ai/ha, 0 is no effect, 100 is complete control
[20] = Postemergence, 500 g ai/ha, 0 is no effect, 100 is complete control
[21] = Preemergence, 125 g ai/ha, 0 no effect, 100 complete control
[22] = 250 g ai/ha, scale 0 to 100, 0 no effect, 100 complete control, 13 to 15 days
[23] = 125 g ai/ha, preemergence, scale 0 (no effect) to 100 (complete control)
[24] = preemergence, 250 g ai/ha, scale 0 (no effect) to 100 (complete control)

Cn1nc(C(F)(F)F)c(CS(=O)(=O)c2cccc[n+]2[O-])c1OCC(F)(F)F [Compound 29]
Sunflower plant response rating [1, 18]: 60
Plant response rating, Sunflower ([1]; Preemergence): 0
Surinam Grass plant response rating [2, 18]: 75
Plant response rating, Surinam Grass ([2]; Preemergence): 75
Corn plant response rating [3, 19]: 30
Corn plant response rating [3, 20]: 60
Corn plant response rating [3, 21]: 0
Plant response rating, Corn ([3]; Preemergence, 500 g ai/ha): 70
Morningglory plant response rating [4, 18]: 10
Plant response rating, Morningglory ([4]; Preemergence): 0
Velvetleaf plant response rating [5, 18]: 100
Plant response rating, Velvetleaf ([5]; Preemergence): 30
Ryegrass, Italian plant response rating [6, 18]: 85
Plant response rating, Ryegrass, Italian ([6]; Preemergence): 60
Pigweed plant response rating [7, 18]: 100
Plant response rating, Pigweed ([7]; Preemergence): 100
Nightshade plant response rating [8, 18]: 98
Plant response rating, Nightshade ([8]; Preemergence): 75
Crabgrass, Large plant response rating [9, 18]: 100
Plant response rating, Crabgrass, Large ([9]; Preemergence): 100
Plant response rating (0 to 100), Crabgrass, Large ([9]; Preemergence, 250 g ai/ha): 100
Foxtail, Giant plant response rating [10, 18]: 100
Plant response rating, Foxtail, Giant ([10]; Preemergence): 100
Plant response rating (0 to 100), Foxtail, Giant ([10]; Preemergence, 250 g ai/ha): 100
Plant response rating, Sedge, Umbrella ([11]; 31 g ai/ha, scale 0 to 100 (0 no effect, 100 complete control)): 80
Plant response rating, Sedge, Umbrella ([11]; 62 g ai/ha, scale 0 to 100, 0 no effect, 100 complete control, 13 to 15 days): 90
Plant response rating, Sedge, Umbrella ([11]; 125 g ai/ha, scale 0 to 100, 0 no effect, 100 complete control, 13 to 15 days): 90
Plant response rating, Sedge, Umbrella [11, 22]: 95
Wheat plant response rating [12, 19]: 50
Wheat plant response rating [12, 20]: 60
Wheat plant response rating [12, 21]: 60
Plant response rating, Wheat ([12]; Preemergence, 500 g ai/ha): 90
Corn plant response rating [13, 18]: 80
Plant response rating, Corn ([13]; Preemergence): 0
Plant response rating (0 to 100), Corn ([13]; Preemergence, 250 g ai/ha): 98
Corn plant response rating ([13]; preemergence, 125 g ai/ha, scale 0 (no effect) to 100 (complete control)): 98
Crabgrass, Large plant response rating [14, 19]: 80
Crabgrass, Large plant response rating [14, 20]: 90
Crabgrass, Large plant response rating [14, 21]: 90
Plant response rating, Crabgrass, Large ([14]; Preemergence, 500 g ai/ha): 100
Barnyardgrass plant response rating [15, 19]: 80
Barnyardgrass plant response rating [15, 20]: 90
Barnyardgrass plant response rating [15, 21]: 100
Plant response rating, Barnyardgrass ([15]; Preemergence, 500 g ai/ha): 100
Johnsongrass plant response rating [16, 18]: 100
Plant response rating, Johnsongrass ([16]; Preemergence): 100
Plant response rating (0 to 100), Johnsongrass ([16]; Preemergence, 250 g ai/ha): 100
Goosegrass plant response rating [17, 18]: 100
Plant response rating, Goosegrass ([17]; Preemergence): 100
Plant response rating (0 to 100), Goosegrass ([17]; Preemergence, 250 g ai/ha): 100

CC(Oc1c(C[S+]([O-])c2cccc[n+]2[O-])c(C(F)(F)F)nn1C)C(F)(F)F (centres unmarked) [Compound 77]
Sunflower plant response rating [1, 18]: 0
Sunflower plant response rating [1, 23]: 80
Plant response rating, Sunflower ([1]; Preemergence): 0
Sunflower plant response rating [1, 24]: 98
Surinam Grass plant response rating [2, 18]: 100
Surinam Grass plant response rating [2, 23]: 100
Plant response rating, Surinam Grass ([2]; Preemergence): 85
Surinam Grass plant response rating [2, 24]: 100
Plant response rating, Corn ([3]; Postemergence, 125 g ai/ha): 50
Corn plant response rating [3, 20]: 60
Corn plant response rating [3, 21]: 50
Plant response rating, Corn ([3]; Preemergence, 500 g ai/ha): 80
Morningglory plant response rating [4, 18]: 65
Morningglory plant response rating [4, 23]: 100
Plant response rating, Morningglory ([4]; Preemergence): 60
Morningglory plant response rating [4, 24]: 100
Velvetleaf plant response rating [5, 18]: 100
Velvetleaf plant response rating [5, 23]: 100
Plant response rating, Velvetleaf ([5]; Preemergence): 60
Velvetleaf plant response rating [5, 24]: 100
Ryegrass, Italian plant response rating [6, 18]: 98
Ryegrass, Italian plant response rating [6, 23]: 100
Plant response rating, Ryegrass, Italian ([6]; Preemergence): 80
Ryegrass, Italian plant response rating [6, 24]: 100
Pigweed plant response rating [7, 18]: 100
Pigweed plant response rating [7, 23]: 100
Plant response rating, Pigweed ([7]; Preemergence): 100
Pigweed plant response rating [7, 24]: 100
Nightshade plant response rating [8, 18]: 100
Nightshade plant response rating [8, 23]: 100
Plant response rating, Nightshade ([8]; Preemergence): 100
Nightshade plant response rating [8, 24]: 100
Crabgrass, Large plant response rating [9, 18]: 100
Crabgrass, Large plant response rating [9, 23]: 100
Plant response rating, Crabgrass, Large ([9]; Preemergence): 80
Crabgrass, Large plant response rating [9, 24]: 100
Foxtail, Giant plant response rating [10, 18]: 100
Foxtail, Giant plant response rating [10, 23]: 100
Plant response rating, Foxtail, Giant ([10]; Preemergence): 80
Foxtail, Giant plant response rating [10, 24]: 100
Plant response rating, Sedge, Umbrella ([11]; 62 g ai/ha, scale 0 to 100 (0 no effect, 100 complete control)): 100
Plant response rating, Sedge, Umbrella [11, 22]: 100
Plant response rating, Wheat ([12]; Postemergence, 125 g ai/ha): 50
Wheat plant response rating [12, 20]: 70
Wheat plant response rating [12, 21]: 50
Plant response rating, Wheat ([12]; Preemergence, 500 g ai/ha): 100
Corn plant response rating [13, 18]: 95
Corn plant response rating [13, 23]: 100
Plant response rating, Corn ([13]; Preemergence): 40
Corn plant response rating [13, 24]: 100
Plant response rating, Crabgrass, Large ([14]; Postemergence, 125 g ai/ha): 60
Crabgrass, Large plant response rating [14, 20]: 90
Crabgrass, Large plant response rating [14, 21]: 80
Plant response rating, Crabgrass, Large ([14]; Preemergence, 500 g ai/ha): 100
Plant response rating, Barnyardgrass ([15]; Postemergence, 125 g ai/ha): 80
Barnyardgrass plant response rating [15, 20]: 90
Barnyardgrass plant response rating [15, 21]: 90
Plant response rating, Barnyardgrass ([15]; Preemergence, 500 g ai/ha): 100
Johnsongrass plant response rating [16, 18]: 100
Johnsongrass plant response rating [16, 23]: 100
Plant response rating, Johnsongrass ([16]; Preemergence): 60
Johnsongrass plant response rating [16, 24]: 100
Goosegrass plant response rating [17, 18]: 100
Goosegrass plant response rating [17, 23]: 100
Plant response rating, Goosegrass ([17]; Preemergence): 95
Goosegrass plant response rating [17, 24]: 100
